In patent US4362743A, “Antibacterial monic acid esters” (Beecham Group Limited, priority 1980, dated 1982):
Values after ≈ are worked out from the molar mass of the structure shown. Where two headings read alike, the source gives them in different places.

Assays:
Type in all cases: cell-based
[1] = test system: M. suipneumoniae JF 435; assay: Anti-mycoplasmal activity in vitro MIC; conditions: Mesomycoplasma hyopneumoniae, JF435, 144 h
[2] = test system: M. suipneumoniae Str. 11; assay: Anti-mycoplasmal activity in vitro MIC; conditions: Mesomycoplasma hyopneumoniae
[3] = test system: M. suipneumoniae J2206/183b; assay: Anti-mycoplasmal activity in vitro MIC; conditions: Mesomycoplasma hyopneumoniae, 144 h
[4] = test system: M. suipneumoniae PW/C/210; assay: Anti-mycoplasmal activity in vitro MIC; conditions: Mesomycoplasma hyopneumoniae, 144 h
[5] = test system: M. suipneumoniae TAM 6N; assay: Anti-mycoplasmal activity in vitro MIC; conditions: Mesomycoplasma hyopneumoniae, TAM6N, 144 h
[6] = test system: M. suipneumoniae ATCC 25095; assay: Anti-mycoplasmal activity in vitro MIC; conditions: Mesomycoplasma hyopneumoniae, ATCC25095, 144 h
[7] = test system: M. suipneumoniae NCTC 10110; assay: Anti-mycoplasmal activity in vitro MIC; conditions: Mesomycoplasma hyopneumoniae, NCTC10110, 144 h
[8] = test system: M. hyorhinis ATCC 23234; assay: Anti-mycoplasmal activity in vitro MIC; conditions: Mesomycoplasma hyorhinis, ATCC23234, 144 h
[9] = test system: M. hyosynoviae ATCC 25591; assay: Anti-mycoplasmal activity in vitro MIC; conditions: 144 h
[10] = test system: Bacillus subtilis 6633; assay: Human bacteria MIC
Experimental: (§1) The values were determined by serial dilutions in nutrient agar with 5% chocolated horse blood after incubations for 18 hours at 37° C.

[11] = test system: E. Coli NCT 10418; assay: Human bacteria MIC; conditions: Escherichia coli; E. Coli NCT 10418; nutrient agar, 5% chocolated horse blood, 18 hours 37° C.; read-out: M.I.C.
Experimental: as §1

[12] = test system: E. coli ESS; assay: Human bacteria MIC; conditions: Escherichia coli
Experimental: as §1

[13] = test system: Haemophilus influenzae Q1; assay: Human bacteria MIC
Experimental: as §1

[14] = test system: K. aerogenes A; assay: Human bacteria MIC; conditions: Klebsiella aerogenes; K. aerogenes A; nutrient agar, 5% chocolated horse blood, 18 hours 37° C.; read-out: M.I.C.
Experimental: as §1

[15] = test system: Neisseria catarralis 1502; assay: Human bacteria MIC
Experimental: as §1

[16] = test system: P. mirabilis 889; assay: Human bacteria MIC; conditions: Proteus mirabilis; P. mirabilis 889; nutrient agar, 5% chocolated horse blood, 18 hours 37° C.; read-out: M.I.C.
Experimental: as §1

[17] = test system: Pasteurella multocida 1633; assay: Human bacteria MIC
Experimental: as §1

[18] = test system: Ps. aeruginosa 10662; assay: Human bacteria MIC; conditions: Pseudomonas aeruginosa; Ps. aeruginosa 10662; nutrient agar, 5% chocolated horse blood, 18 hours 37° C.; read-out: M.I.C.
Experimental: as §1

[19] = test system: Staph. aureus Oxford; assay: Human bacteria MIC; conditions: Staphylococcus aureus; Staph. aureus Oxford; nutrient agar, 5% chocolated horse blood, 18 hours 37° C.; read-out: M.I.C.
Experimental: as §1

[20] = test system: Staph. aureus Russell; assay: Human bacteria MIC; conditions: Staphylococcus aureus; Staph. aureus Russell; nutrient agar, 5% chocolated horse blood, 18 hours 37° C.; read-out: M.I.C.
Experimental: as §1

[21] = test system: Staph. aureus W2827; assay: Human bacteria MIC; conditions: Staphylococcus aureus; Staph. aureus W2827; nutrient agar, 5% chocolated horse blood, 18 hours 37° C.; read-out: M.I.C.
Experimental: as §1

[22] = test system: Strep Group B 2788; assay: Human bacteria MIC
Experimental: as §1

[23] = test system: Strep. Group C 64/848; assay: Human bacteria MIC
Experimental: as §1

[24] = test system: Strep. faecalis I; assay: Human bacteria MIC; conditions: Enterococcus faecalis, nutrient agar, 5% chocolated horse blood, 18 hours 37° C.
Experimental: as §1

[25] = test system: Strep. pneumoniae CN33; assay: Human bacteria MIC; conditions: Streptococcus pneumoniae; Strep. pneumoniae CN33; nutrient agar, 5% chocolated horse blood, 18 hours 37° C.; read-out: M.I.C.
Experimental: as §1

[26] = test system: Strep. pyogenes R80/421; assay: Human bacteria MIC; conditions: Streptococcus pyogenes; Strep. pyogenes R80/421; nutrient agar, 5% chocolated horse blood, 18 hours 37° C.; read-out: M.I.C.
Experimental: as §1

[27] = test system: Corneybacterium xerosis 9755; assay: Human bacteria MIC; conditions: Corneybacterium xerosis 9755; nutrient agar, 5% chocolated horse blood, 18 hours 37° C.; read-out: M.I.C.
Experimental: as §1

[28] = M. suipneumoniae JF 435, Friis broth, 0.9% agarose, 6 days 37° C., read-out: M.I.C.
[29] = M. suipneumoniae J2206/183b, Friis broth, 0.9% agarose, 6 days 37° C., read-out: M.I.C.
[30] = M. suipneumoniae TAM 6N, Friis broth, 0.9% agarose, 6 days 37° C., read-out: M.I.C.
[31] = M. suipneumoniae ATCC 25095, Friis broth, 0.9% agarose, 6 days 37° C., read-out: M.I.C.
[32] = M. suipneumoniae NCTC 10110, Friis broth, 0.9% agarose, 6 days 37° C., read-out: M.I.C.
[33] = Bacillus subtilis 6633, nutrient agar, 5% chocolated horse blood, 18 hours 37° C., read-out: M.I.C.
[34] = E. coli ESS, nutrient agar, 5% chocolated horse blood, 18 hours 37° C., read-out: M.I.C.
[35] = Neisseria catarralis 1502, nutrient agar, 5% chocolated horse blood, 18 hours 37° C., read-out: M.I.C.
[36] = Pasteurella multocida 1633, nutrient agar, 5% chocolated horse blood, 18 hours 37° C., read-out: M.I.C.
[37] = Strep Group B 2788, nutrient agar, 5% chocolated horse blood, 18 hours 37° C., read-out: M.I.C.
[38] = Strep. Group C 64/848, nutrient agar, 5% chocolated horse blood, 18 hours 37° C., read-out: M.I.C.

| Structure (SMILES) | MIC [1, 28] | MIC [3, 29] | MIC [5, 30] | MIC [6, 31] | MIC [7, 32] | MIC [8] | MIC [10, 33] | MIC [11] | MIC [12, 34] | MIC [14] | MIC [15, 35] | MIC [16] | MIC [17, 36] | MIC [18] | MIC [19] | MIC [20] | MIC [21] | MIC [24] | MIC [25] | MIC [26] | further results |
| --- | --- | --- | --- | --- | --- | --- | --- | --- | --- | --- | --- | --- | --- | --- | --- | --- | --- | --- | --- | --- | --- |
| C/C(=C\C(=O)OCCCC(=NO)c1ccccc1)C[C@@H]1OC[C@H](C[C@@H]2O[C@H]2[C@@H](C)[C@H](C)O)[C@@H](O)[C@H]1O [Example 1, 4-Hydroxyimino-4-phenylbutyl monate A] | 0.25 µg/mL (≈ 0.494 µM) | 0.25 µg/mL (≈ 0.494 µM) | 0.25 µg/mL (≈ 0.494 µM) | 0.25 µg/mL (≈ 0.494 µM) | 0.25 µg/mL (≈ 0.494 µM) | 0.1 µg/mL (≈ 0.198 µM) | 1 µg/mL (≈ 1.98 µM) | > 100 µg/mL | 2.5 µg/mL (≈ 4.94 µM) | > 100 µg/mL | 0.2 µg/mL (≈ 0.396 µM) | > 100 µg/mL | 5 µg/mL (≈ 9.89 µM) | > 100 µg/mL | 2.5 µg/mL (≈ 4.94 µM) | 2.5 µg/mL (≈ 4.94 µM) | 2.5 µg/mL (≈ 4.94 µM) | > 100 µg/mL | 0.5 µg/mL (≈ 0.989 µM) | 2.5 µg/mL (≈ 4.94 µM) | MIC ([2]; 144 h, M. suipneumoniae Str. 11, Friis broth, 0.9% agarose, 6 days 37° C., read-out: M.I.C.): 0.1 µg/mL (≈ 0.198 µM); MIC ([4]; M. suipneumoniae PW/C/210, Friis broth, 0.9% agarose, 6 days 37° C., read-out: M.I.C.): 0.1 µg/mL (≈ 0.198 µM); MIC ([9]; M. hyosynoviae ATCC 25591, Friis broth, 0.9% agarose, 6 days 37° C., read-out: M.I.C.): 0.25 µg/mL (≈ 0.494 µM); MIC ([13]; Haemophilus influenzae Q1, nutrient agar, 5% chocolated horse blood, 18 hours 37° C., read-out: M.I.C.): 0.5 µg/mL (≈ 0.989 µM); MIC [22, 37]: 2.5 µg/mL (≈ 4.94 µM); MIC [23, 38]: 2.5 µg/mL (≈ 4.94 µM) |
| C/C(=C\C(=O)OCCCC(=NNC(N)=O)c1ccccc1)C[C@@H]1OC[C@H](C[C@@H]2O[C@H]2[C@@H](C)[C@H](C)O)[C@@H](O)[C@H]1O [Example 2, 4-Phenyl-4-semicarbazonobutyl monate A] | – | – | – | – | – | 0.25 µg/mL (≈ 0.456 µM) | 2.5 µg/mL (≈ 4.56 µM) | > 100 µg/mL | 5 µg/mL (≈ 9.13 µM) | > 100 µg/mL | 1 µg/mL (≈ 1.83 µM) | > 100 µg/mL | 10 µg/mL (≈ 18.3 µM) | 100 µg/mL (≈ 183 µM) | 5 µg/mL (≈ 9.13 µM) | 10 µg/mL (≈ 18.3 µM) | 10 µg/mL (≈ 18.3 µM) | > 100 µg/mL | 1 µg/mL (≈ 1.83 µM) | 2.5 µg/mL (≈ 4.56 µM) | MIC [1]: 0.5 µg/mL (≈ 0.913 µM); MIC ([2]; STR.11, 144 h): 0.25 µg/mL (≈ 0.456 µM); MIC ([3]; J2206/183B): 0.5 µg/mL (≈ 0.913 µM); MIC [4]: 0.25 µg/mL (≈ 0.456 µM); MIC [5]: 0.5 µg/mL (≈ 0.913 µM); MIC [6]: 0.25 µg/mL (≈ 0.456 µM); MIC [7]: 0.5 µg/mL (≈ 0.913 µM); MIC [9]: 0.5 µg/mL (≈ 0.913 µM); MIC [27]: > 100 µg/mL; MIC [22, 37]: 2.5 µg/mL (≈ 4.56 µM); MIC [23, 38]: 5 µg/mL (≈ 9.13 µM) |
| C/C(=C\C(=O)OC1CCC(=NO)CC1)C[C@@H]1OC[C@H](C[C@@H]2O[C@H]2[C@@H](C)[C@H](C)O)[C@@H](O)[C@H]1O (stereo partly shown) [Example 3, 4-Hydroxyiminocyclohexyl monate A] | 0.5 µg/mL (≈ 1.1 µM) | 0.5 µg/mL (≈ 1.1 µM) | 0.5 µg/mL (≈ 1.1 µM) | 0.5 µg/mL (≈ 1.1 µM) | 0.5 µg/mL (≈ 1.1 µM) | 0.25 µg/mL (≈ 0.549 µM) | – | > 100 µg/mL | – | > 100 µg/mL | – | > 100 µg/mL | – | > 100 µg/mL | 2.5 µg/mL (≈ 5.49 µM) | 5 µg/mL (≈ 11 µM) | 5 µg/mL (≈ 11 µM) | 25 µg/mL (≈ 54.9 µM) | 0.5 µg/mL (≈ 1.1 µM) | 0.5 µg/mL (≈ 1.1 µM) | MIC ([2]; STR.11, 144 h): 0.25 µg/mL (≈ 0.549 µM); MIC [4]: 0.25 µg/mL (≈ 0.549 µM); MIC [9]: 0.1 µg/mL (≈ 0.22 µM); MIC ([10]; Bacillus subtilis, 6633, 18 h): 1 µg/mL (≈ 2.2 µM); MIC [27]: > 100 µg/mL; MIC ([12]; 18 h): 1 µg/mL (≈ 2.2 µM); MIC ([13]; Haemophilus influenzae, Q1, 18 h): 0.25 µg/mL (≈ 0.549 µM); MIC ([15]; Neisseria, 1502, 18 h): 1 µg/mL (≈ 2.2 µM); MIC ([17]; Pasteurella multocida, 1633, 18 h): 1 µg/mL (≈ 2.2 µM); MIC ([22]; 18 h): 1 µg/mL (≈ 2.2 µM); MIC ([23]; 18 h): 1 µg/mL (≈ 2.2 µM) |
